Source: US20020025929A1, “METHOD OF BUILDING AND MAINTAINING BONE” (priority 1997, published 2002)
Marks after values point to notes of the source that are not given here.

How the values were obtained:
Type in all cases: in vivo, Sprague-Dawley rats
[1] = system: osteopenic ovariectomized rats; assay: Femoral neck strength (shear loading of proximal femur); design: Neck Fu (ultimate force): unit not given beside the values; conditions: OVX rats; for Neck Fu (ultimate force): proximal femora in shear, mean ± SEM
Experimental: Femoral neck strength was measured by mounting the proximal half of the femur vertically in a chuck and applying downward force at a rate of 1 mm/sec on the femoral head until the neck failed. The ultimate load was calculated as the maximum force sustained by the femoral neck. All tests were done at room temperature using the MTS system.
(§1) In a second study, virgin Sprague-Dawley rats were bilaterally ovariectomized (except for the sham-operated group), the ovariectomized animals randomized, and allowed to lose bone for one month prior to treatment in the manner described above. The animal groups, each containing 7-8 animals, included sham-operated animals (SHAM); bilaterally ovariectomized animals (OVX); bilaterally ovariectomized animals treated with 0.01, 0.3 or 1 mg/kg/day of compound 1a, respectively, for three months; bilaterally ovariectomized animals treated subcutaneously with PTH(1-34) at a dose of 10 μg/kg/day for three months; bilaterally ovariectomized animals treated subcutaneously with PTH(1-34) at a dose of 10 μg/kg/day and orally with compound 1a at a dose of 0.3 mg/kg/day, both compounds administered for three months; bilaterally ovariectomized animals treated subcutaneously with PTH(1-34) at a dose of 10 μg/kg/day for forty-five days followed by gavage administration of vehicle for forty-five days; bilaterally ovariectomized animals treated subcutaneously with PTH(1-34) at a dose of 10 μg/kg/day for forty-five days followed by oral administration of only compound 1a at a dose of 0.3 mg/kg/day for forty-five days; and bilaterally ovariectomized animals treated with 17α-ethynyl estradiol administered orally at a dose of 0.1 mg/kg/day.

[2] = system: osteopenic ovariectomized rats; assay: Three point bending test of femora mid-shaft; design: I (moment of inertia): unit not given beside the values; conditions: OVX rats; for E (Young's modulus) / Fu (ultimate force) / I (moment of inertia) / t (cortical thickness) / u (toughness) / σu (strength): femora mid-shaft, mean ± SEM; for load to failure (Fu) and toughness of femora mid-shaft (in words): 1a dose-dependent up to 1 mg/kg, EE2 0.1 mg/kg, PTH (1-34) 45 and 90 days, combination
Experimental: Bone strength was measured for the femoral neck, midshaft, and the L-6 vertebra. Femora were thawed before testing, and bone strength was measured on intact femora using a three point bending test. Load was applied midway between two supports that were 15 mm apart. The femora were positioned so the loading point was 7.5 mm proximal from the distal popliteal space and bending occurred about the medial-lateral axis. Specimens were tested in a saline bath at 37° C. Each specimen was submerged in the saline bath for three minutes before testing to allow equilibration of temperature. Load-displacement curves were recorded at a crosshead speed of 1 mm/sec using a servo-hydraulic materials testing machine (MTS Corp., Minneapolis, Minn.) and an x-y recorder (Hewlett Packard 7090A, Palo Alto, Calif.). The measurements included: cross-sectional moment of inertia (I), cortical thickness (t), ultimate load (Fu), ultimate stress (σu), Young's modulus (E), and toughness (u). These values were calculated as described previously (Turner and Burr 1993; Turner et al. 1996).
as §1

[3] = system: osteopenic ovariectomized rats; assay: Compression testing of L-6 vertebra; conditions: OVX rats; for vertebral strength (Su) and toughness of L-6 vertebra (in words): continuous treatment (PTH 90 days); for Vert E (Young's modulus) / Vert u (toughness) / Vert σu (vertebral strength): lumbar vertebra in compression, mean ± SEM
Experimental: Bone strength of L-6 vertebrae was measured after the posterior processes were removed and the ends of the centrum made parallel using a diamond wafering saw (Buehler Isomet, Evanston, Ill.). Ultimate stress (σu) Young's modulus (E), and toughness (u) for each vertebra was measured in compression at a load rate of 50 N/sec using the MTS machine. The compressive load was applied through a pivoting platen to correct for nonparallel alignment of the faces of the vertebral body (Turner and Burr, 1993).
Specimens were tested in saline solution at 37° C. Ultimate stress was calculated as the maximum load divided by the gross cross-sectional area πAB/4, where A and B are the vertebral widths in the anterior-posterior and medial lateral directions. Young's modulus was calculated by multiplying stiffness times 4T/πAB, where T is the specimen thickness. Toughness was calculated as the area under the load-displacement curve divided by πABT/4.
as §1

osteopenic rats = assay: Micro-CT of distal femur metaphysis; conditions: continuous treatment, 1a 0.01-1 mg/kg, 17α-ethynyl estradiol 0.1 mg/kg, PTH (1-34), 1a 0.3 mg/kg with PTH (1-34), FIG. 2
Experimental: The metaphysis of proximal tibiae were scanned longitudinally from baseline, using a 960A pQCT loaded with Dichte software version 5.2 (Norland/Stratec, Ft. Atkinson, Wis.), using the technique described by Sato et al., —1995, JPET 272:1252-1259; Sato 1995, Bone 17:157S-162S). Volumetric bone mineral density (BMD, mg/cm3), cross-sectional area (X-Area), voxel number, and mineral content (BMC, mg) were quantitated for the whole cross-section of the metaphysis. Sites of excised bones were analyzed at higher resolution, using a micro-CT (Stratec). Specifically, distal femora (below the condyles, see Sato et al. 1995) and L-3 vertebra (mid-cross section, Helterbrand et al., 1997, Bone 21:401-409) were analyzed using voxel dimensions of 50 ×50×1000 μm and 70×70×1000 μm, respectively.
In a second study, virgin Sprague-Dawley rats were bilaterally ovariectomized (except for the sham-operated group), the ovariectomized animals randomized, and allowed to lose bone for one month prior to treatment in the manner described above. […]

[4] = Cmpd. 1a 0.01 mg/kg/day oral, 3 months
[5] = Cmpd. 1a 0.3 mg/kg/day oral, 3 months
[6] = Cmpd. 1a 1 mg/kg/day oral, 3 months
[7] = continuous treatment (PTH 90 days)
[8] = Cmpd 1a 0.01 mg/kg/day oral, 3 months
[9] = Cmpd 1a 0.3 mg/kg/day oral, 3 months
[10] = Cmpd 1a 1 mg/kg/day oral, 3 months
[11] = 3 months: PTH (1-34) 10 μg/kg/day s.c., 1a 0.3 mg/kg/day oral + PTH, EE2 0.1 mg/kg/day oral
[12] = PTH (1-34) 10 μg/kg/day s.c. 45 days, then vehicle or 1a 0.3 mg/kg/day oral 45 days
[13] = PTH (1-34) discontinued after 45 days or switched to compound 1a

COc1ccc(-c2sc3cc(O)ccc3c2Oc2ccc(OCCN3CCCCC3)cc2)cc1 [Compound 1a, 6-hydroxy-2-(4-methoxyphenyl)-3-[4-(2-piperidin-1-ylethoxy)phenoxy]-benzo[b]thiophene]
Neck Fu (ultimate force) [1, 4]: 112 ± 4.7 | Neck Fu (ultimate force) [1, 5]: 114 ± 5.1 | Neck Fu (ultimate force) [1, 6]: 117 ± 3.1 | cortical thickness of femora mid-shaft (in words) [2, 7]: intermediate between Sham and OVX | E (Young's modulus) [2, 8]: 9081 ± 446 | Fu (ultimate force) [2, 8]: 160 ± 5^s | I (moment of inertia) [2, 8]: 4.35 ± .21 | t (cortical thickness) [2, 8]: .635 ± .020^s,o | u (toughness) [2, 8]: 3.72 ± .26^s,o | σu (strength) [2, 8]: 199 ± 5^s,o | E (Young's modulus) [2, 9]: 8844 ± 431 | Fu (ultimate force) [2, 9]: 164 ± 4^s,o | I (moment of inertia) [2, 9]: 4.05 ± .17^o | t (cortical thickness) [2, 9]: .654 ± .012^s,o | u (toughness) [2, 9]: 4.13 ± .24^o | σu (strength) [2, 9]: 217 ± 5^o | E (Young's modulus) [2, 10]: 10087 ± 520 | Fu (ultimate force) [2, 10]: 174 ± 4^o | I (moment of inertia) [2, 10]: 4.17 ± .21 | t (cortical thickness) [2, 10]: .671 ± .010^s,o | u (toughness) [2, 10]: 4.52 ± .25^o | σu (strength) [2, 10]: 228 ± 9^o | load to failure (Fu) and toughness of femora mid-shaft (in words) [2]: improved load to failure (Fu) and toughness in a dose-dependent manner to above OVX and not different from Sham at 1 mg/kg | vertebral strength (Su) and toughness of L-6 vertebra (in words) [3]: improved vertebral strength (Su) and toughness in a dose-dependent manner to above OVX | Vert E (Young's modulus) [3, 4]: 540 ± 72 | Vert u (toughness) [3, 4]: 1.72 ± 0.44 | Vert σu (vertebral strength) [3, 4]: 24.8 ± 2.3^s | Vert E (Young's modulus) [3, 5]: 436 ± 76 | Vert u (toughness) [3, 5]: 1.97 ± 0.37 | Vert σu (vertebral strength) [3, 5]: 28.3 ± 1.9^o | Vert E (Young's modulus) [3, 6]: 384 ± 30 | Vert u (toughness) [3, 6]: 2.30 ± 0.29^o | Vert σu (vertebral strength) [3, 6]: 27.8 ± 1.5^o | BMD of distal femur metaphysis (micro-CT) (osteopenic rats): prevented further bone loss

C#C[C@]1(O)CC[C@H]2[C@@H]3CCc4cc(O)ccc4[C@H]3CC[C@@]21C [EE2, 17α-ethynyl estradiol]
Neck Fu (ultimate force) [1, 11]: 110 ± 6.1 | cortical thickness of femora mid-shaft (in words) [2, 7]: intermediate between Sham and OVX | E (Young's modulus) [2, 11]: 10002 ± 844 | Fu (ultimate force) [2, 11]: 182 ± 11^o | I (moment of inertia) [2, 11]: 4.42 ± .33 | t (cortical thickness) [2, 11]: .686 + .015^o | u (toughness) [2, 11]: 4.62 ± .52^o | σu (strength) [2, 11]: 225 ± 13^o | load to failure (Fu) and toughness of femora mid-shaft (in words) [2]: above OVX and not different from Sham | Vert E (Young's modulus) [3, 11]: 579 ± 94 | Vert u (toughness) [3, 11]: 1.44 ± 0.37 | Vert σu (vertebral strength) [3, 11]: 28.1 ± 2.6^o | BMD of distal femur metaphysis (micro-CT) (osteopenic rats): prevented further bone loss

PTH: N-terminal 1-34 fragment of human parathyroid hormone, hPTH(1-34, Sequence ID No. 3); PTH/vehicle = 45 days PTH then vehicle
ultimate load for the femora neck (in words) [1]: higher than OVX and Sham | Neck Fu (ultimate force) [1, 11]: 148 ± 2.6^s,o | Neck Fu (ultimate force) [1, 12]: 116 ± 6.2 | cortical thickness of femora mid-shaft (in words) [2, 13]: lowered cortical thickness to below Sham | cortical thickness of femora mid-shaft (in words) [2, 7]: increased cortical thickness above OVX | E (Young's modulus) [2, 11]: 9854 ± 597 | Fu (ultimate force) [2, 11]: 202 ± 7^o | I (moment of inertia) [2, 11]: 4.86 ± .26 | t (cortical thickness) [2, 11]: .739 ± .023^o | u (toughness) [2, 11]: 5.24 ± .52^o | σu (strength) [2, 11]: 234 ± 9^o | E (Young's modulus) [2, 12]: 8516 ± 580 | Fu (ultimate force) [2, 12]: 171 ± 4^o | I (moment of inertia) [2, 12]: 4.72 ± .17 | t (cortical thickness) [2, 12]: .630 ± .010^s | u (toughness) [2, 12]: 3.81 ± .24^s,o | σu (strength) [2, 12]: 205 ± 6^s,o | load to failure (Fu) and toughness of femora mid-shaft (in words) [2]: improved Fu to above OVX | vertebral strength (Su) of L-6 vertebra (in words) [3, 13]: lowered Su to below Sham | vertebral strength (Su) and toughness of L-6 vertebra (in words) [3]: increased Su and toughness to above OVX and Sham levels | Vert E (Young's modulus) [3, 11]: 686 ± 77 | Vert u (toughness) [3, 11]: 3.68 ± 1.10^s,o | Vert σu (vertebral strength) [3, 11]: 45.5 ± 2.4^s,o | Vert E (Young's modulus) [3, 12]: 524 ± 109 | Vert u (toughness) [3, 12]: 1.16 ± 0.22 | Vert σu (vertebral strength) [3, 12]: 24.2 ± 2.5^s | BMD of distal femur metaphysis (micro-CT) (osteopenic rats): increased BMD was observed to levels significantly beyond OVX, Sham, and baseline levels
